Source: patent US20140109520A1, “BEVERAGE FILLING METHOD AND APPARATUS” (DAI NIPPON PRINTING CO., LTD., priority 2008, published 2014)
Like-named read-outs stand apart in the source and are kept apart here.

Key:
[1] = test system: B. subtilis spore
Text: Effects attained by the container sterilization method of the present invention will be compared with effects attained by the conventional sterilization method as in the following Table 2.
(§1) In the column “No” in the above Table 2, A1, A2, A3, B1, B2 denotes bottle sample numbers, in which A1, A2 and A3 correspond to the conventional sterilization method, and B1 and B2 correspond to the third embodiment of the present invention mentioned above.
The column “Log Reduction” represents LRV (Logarithmic Reduction Value) as to B. subtilis spore.

[2] = test system: B. subtilis var. niger ATCC9372
Text: Evaluation method to the measurement was as follows.
Sterilization Effects (Log Reduction)=Log(Number of Adhering Bacteria/Number of Survived Bacteria)
Index Bacteria: B. subtilis var. niger ATCC9372

[3] = for Remaining hydrogen peroxide: 500 mL PET bottle, 30 μL hydrogen peroxide
[4] = test system: bacteria adhering to the inner surfaces of the preforms; details: for Number of bacteria adhering on inner surface of preform 10^3: 10^3 bacteria; for Number of bacteria adhering on inner surface of preform 10^4: 10^4 bacteria; for Number of bacteria adhering on inner surface of preform 10^5: 10^5 bacteria
Text: as §1

[5] = bottle sample A1, conventional method, H2O2 mist 50 μL/bottle, H2O2 in air 0.0 mg/L, using amount 170 mL/min
[6] = bottle sample A2, conventional method, H2O2 mist 100 μL/bottle, H2O2 in air 0.0 mg/L, using amount 340 mL/min
[7] = bottle sample B1, third embodiment, H2O2 mist 50 μL/bottle, H2O2 in air 3.3 mg/L, using amount 230 mL/min
[8] = 2 sec from hydrogen peroxide spray to air-rinse
[9] = 5 sec from hydrogen peroxide spray to air-rinse
[10] = 0.5 sec from hydrogen peroxide spray to air-rinse
[11] = bottle sample A2, conventional method, H2O2 mist 100 μL/bottle, H2O2 in air 0.0 mg/L
[12] = bottle sample A3, conventional method, H2O2 mist 150 μL/bottle, H2O2 in air 0.0 mg/L
[13] = bottle sample B1, third embodiment, H2O2 mist 50 μL/bottle, H2O2 in air 3.3 mg/L
[14] = bottle sample B2, third embodiment, H2O2 mist 50 μL/bottle, H2O2 in air 5 mg/L

## OO [hydrogen peroxide]
[1]; [5]
  Judgment Sterilization performance: X (LVR being less than 6)
  Log reduction: <3.4
[1]; [6]
  Judgment Sterilization performance: ◯ (shows LRV being 6)
  Log reduction: 6.0
[1]; bottle sample A3, conventional method, H2O2 mist 150 μL/bottle, H2O2 in air 0.0 mg/L, using amount 510 mL/min
  Log reduction: >6.0
[1]; [7]
  Judgment Sterilization performance: ◯ (shows LRV being 6)
  Log reduction: 6
[1]; bottle sample B2, third embodiment, H2O2 mist 50 μL/bottle, H2O2 in air 5 mg/L, using amount 280 mL/min
  Log reduction: >6.0
[1]; conventional method, hydrogen peroxide of 340 mL/min. to 510 mL/min.
  sterilization effect LRV: 6
[1]; method of the present invention, hydrogen peroxide of 230 mL/min. to 260 mL/min.
  sterilization effect LRV: 6
Bottle temperature 65° C.
  density of the hydrogen peroxide adhering to the surface of the bottle: ~80 weight %
Bottle temperature 80° C.
  density of the hydrogen peroxide adhering to the surface of the bottle: ~90 weight %
[2]; [8]
  Judgment (log reduction): ∘
[2]; [9]
  Judgment (log reduction): ∘
[3]; [10]
  Judgment (remaining hydrogen peroxide): ∘
  Remaining hydrogen peroxide: 0.3 ppm
[3]; [8]
  Judgment (remaining hydrogen peroxide): ∘
[3]; [9]
  Remaining hydrogen peroxide: 0.9 ppm
[4]; [11]
  Number of bacteria adhering on inner surface of preform 10^3: ◯◯◯
  Number of bacteria adhering on inner surface of preform 10^4: ◯◯◯
  Number of bacteria adhering on inner surface of preform 10^5: ◯◯[…]
[4]; [12]
  Number of bacteria adhering on inner surface of preform 10^3: ◯◯◯
  Number of bacteria adhering on inner surface of preform 10^4: ◯◯◯
  Number of bacteria adhering on inner surface of preform 10^5: ◯◯◯
[4]; [13]
  Number of bacteria adhering on inner surface of preform 10^3: ◯◯◯
  Number of bacteria adhering on inner surface of preform 10^4: ◯◯◯
  Number of bacteria adhering on inner surface of preform 10^5: ◯◯[…]
[4]; [14]
  Number of bacteria adhering on inner surface of preform 10^3: ◯◯◯
  Number of bacteria adhering on inner surface of preform 10^4: ◯◯◯
  Number of bacteria adhering on inner surface of preform 10^5: ◯◯◯
